In ChEMBL document CHEMBL1201862, “PubChem BioAssay data set” (2004):
Values joined by “and” are separate entries in the source; they are usually repeats but may differ in a detail not shown here. Equal entries are not always repeated. Structures can show the parent of a compound that is named as a salt.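 These data come from cells grown in 96-well plates and exposed to compound for 48 hours at five concentrations. The concentration for 50% growth inhibition is given as GI50.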 Active and inactive are the calls of the source. Rule as the data show it: active = GI50 up to about 1.1 µM and inactive = higher.

How the values were obtained:
Assay in all cases: growth of human tumour cells (NCI), 48 h
[1] = test system: DMS-114
[2] = test system: SNB-19
[3] = test system: OVCAR-8
[4] = test system: NCI-H460
[5] = test system: KM12
[6] = test system: HCT-15
[7] = test system: M19-MEL
[8] = test system: SK-MEL-2
[9] = test system: MOLT-4
[10] = test system: K562
[11] = test system: LXFL 529
[12] = test system: U-251
[13] = test system: A498
[14] = test system: M14
[15] = test system: RPMI-8226
[16] = test system: LOX IMVI
[17] = test system: OVCAR-4
[18] = test system: Hs-578T
[19] = test system: MDA-MB-435
[20] = test system: MCF7

| SMILES | GI50 [1] | GI50 [2] | GI50 [3] | GI50 [4] | GI50 [5] | GI50 [6] [µM] | GI50 [7] | GI50 [8] | GI50 [9] | GI50 [10] | GI50 [11] | GI50 [12] | GI50 [13] | GI50 [14] | GI50 [15] | GI50 [16] | GI50 [17] | GI50 [18] | GI50 [19] | GI50 [20] |
| --- | --- | --- | --- | --- | --- | --- | --- | --- | --- | --- | --- | --- | --- | --- | --- | --- | --- | --- | --- | --- |
| C=CC(OCC)(OCC)OCC | 15.6 µM (inactive) | > 100 µM (inactive) | > 100 µM (inactive) | > 100 µM (inactive) | > 100 µM (inactive) | 53.1 | > 100 µM (inactive) | > 100 µM (inactive) | > 100 µM (inactive) | > 100 µM (inactive) | 77.3 µM (inactive) | > 100 µM (inactive) | > 100 µM (inactive) | > 100 µM (inactive) | 61.1 µM (inactive) | 66.2 µM (inactive) | > 100 µM (inactive) | – | – | – |
| CC(=O)N/C(=C\c1ccc(/C=C(\NC(C)=O)C2=NC3C(=O)c4ccccc4C(=O)C3N2)cc1)C1=NC2C(=O)c3ccccc3C(=O)C2N1 (configuration not stated) | 8 µM (inactive) | 19 µM (inactive) | 22.4 µM (inactive) | 12.8 µM (inactive) | 3.63 µM (inactive) | 9.14 | 92.3 µM (inactive) | – | 2.44 µM (inactive) | 19.3 µM (inactive) | 42.4 µM (inactive) | 9.98 µM (inactive) | 5.57 µM (inactive) | 49.8 µM (inactive) | 5.05 µM (inactive) | 6.92 µM (inactive) | > 100 µM (inactive) | – | – | – |
| O=C1c2ccccc2C(=O)c2c1ccc1c2N=C(c2ccc(F)cc2)CC(c2ccc(Cl)c(Cl)c2)N1 (configuration not stated) | 10.1 µM (inactive) | 13.1 µM (inactive) | 13.4 µM (inactive) | 16.9 µM (inactive) | 6 µM (inactive) | 5.81 | 17.2 µM (inactive) | 14 µM (inactive) | 7.43 µM (inactive) | 7.16 µM (inactive) | 16 µM (inactive) | 12.1 µM (inactive) | 19.5 µM (inactive) | 18.2 µM (inactive) | 3.15 µM (inactive) | 3.94 µM (inactive) | 19 µM (inactive) | – | – | – |
| NC(=O)Nc1cc(O)ccc1/N=N/c1ccc(S(=O)(=O)Nc2ccccn2)cc1 | > 100 µM (inactive) | > 100 µM (inactive) | > 100 µM (inactive) | > 100 µM (inactive) | > 100 µM (inactive) | > 100 | > 100 µM (inactive) | > 100 µM (inactive) | 5.9 µM (inactive) | > 100 µM (inactive) | > 100 µM (inactive) | > 100 µM (inactive) | > 100 µM (inactive) | > 100 µM (inactive) | > 100 µM (inactive) | > 100 µM (inactive) | > 100 µM (inactive) | – | – | – |
| O=C(/C=C/c1ccc(Cl)c(Cl)c1)C1CCC(Cl)CC1 (configuration not stated) | 16.3 µM (inactive) | 17.7 µM (inactive) | 18.8 µM (inactive) | 23.2 µM (inactive) | 19.2 µM (inactive) | 18.2 | 17.3 µM (inactive) | – | – | – | 18.2 µM (inactive) | 15.1 µM (inactive) | 22.4 µM (inactive) | 18.5 µM (inactive) | 4.69 µM (inactive) | 16.1 µM (inactive) | 17 µM (inactive) | – | – | – |
| Nc1ccc2cc3ccc(N)cc3nc2c1 [PROFLAVINE SULFATE] | 1.21 µM (inactive) | – | 1.09 µM (active) and 995 nM (active) | 528 nM (active) and 485 nM (active) | – | – | 1.79 µM (inactive) | – | 338 nM (active) and 284 nM (active) | – | 0.953 µM (active) | – | – | – | 1.58 µM (inactive) and 1.43 µM (inactive) | 789 nM (active) and 764 nM (active) | – | 2.57 µM (inactive) | 1.48 µM (inactive) | 0.638 µM (active) |
